Data as given in US12529162B2, “Method of screening for peptides capable of binding to a ubiquitin protein ligase (E3)” (Phoremost Limited, priority 2019, dated 2026).
Entries after “also recorded” stand apart in the source; their conditions may differ. Where two headings read alike, the source gives them in different places. Blank lines part the entries; values can stand above or below the sequence they belong to.

Experiments:
GFP [1] = conditions: HEK293A
Description: GFP was used as the target (test protein) in this study.
GFP-peptide expressing cells were either untreated (DMSO treatment only; ‘Peptide+vehicle’) or treated with the proteasome inhibitor MG132 (10 μM in DMSO, for 4 h) (‘Peptide+MG132’), and were then analyzed by FACS for GFP levels (FIG. 8).

GFP [2] = conditions: HEK293A; remark: listed apart in the source
Description: Plasmids encoding for GFP alone (control), or GFP tagged with one of the validated candidate peptide hits from the screening method, Hit (#1) (see Example 5) or Hit (#2), were transduced into HEK293A cells using lentivirus. Cells expressing tagged GFP were either untreated (DMSO treatment only) or treated with the proteasome inhibitor MG132 for 4 hours, after which they were harvested and analyzed by Western Blotting. Membranes were probed with primary antibodies against GFP (CST #2555), or actin (Abcam ab179467) as a loading control. After the addition of HRP-conjugated secondary antibodies, protein signals were detected by chemiluminescence (FIG. 9).

TNKS2 = molecular target: T1, TNKS2 (Homo sapiens, UniProt Q9H2K2); test: Western blot of TNKS2 levels in HEK293A cells transfected with PROTAC-encoding plasmids; assay type: cell-based; conditions: 20 hours after transfection, actin loading control
T1 construct: endogenous in cells; host or cells: HEK293A
T1 sequence (Q9H2K2 1-1166): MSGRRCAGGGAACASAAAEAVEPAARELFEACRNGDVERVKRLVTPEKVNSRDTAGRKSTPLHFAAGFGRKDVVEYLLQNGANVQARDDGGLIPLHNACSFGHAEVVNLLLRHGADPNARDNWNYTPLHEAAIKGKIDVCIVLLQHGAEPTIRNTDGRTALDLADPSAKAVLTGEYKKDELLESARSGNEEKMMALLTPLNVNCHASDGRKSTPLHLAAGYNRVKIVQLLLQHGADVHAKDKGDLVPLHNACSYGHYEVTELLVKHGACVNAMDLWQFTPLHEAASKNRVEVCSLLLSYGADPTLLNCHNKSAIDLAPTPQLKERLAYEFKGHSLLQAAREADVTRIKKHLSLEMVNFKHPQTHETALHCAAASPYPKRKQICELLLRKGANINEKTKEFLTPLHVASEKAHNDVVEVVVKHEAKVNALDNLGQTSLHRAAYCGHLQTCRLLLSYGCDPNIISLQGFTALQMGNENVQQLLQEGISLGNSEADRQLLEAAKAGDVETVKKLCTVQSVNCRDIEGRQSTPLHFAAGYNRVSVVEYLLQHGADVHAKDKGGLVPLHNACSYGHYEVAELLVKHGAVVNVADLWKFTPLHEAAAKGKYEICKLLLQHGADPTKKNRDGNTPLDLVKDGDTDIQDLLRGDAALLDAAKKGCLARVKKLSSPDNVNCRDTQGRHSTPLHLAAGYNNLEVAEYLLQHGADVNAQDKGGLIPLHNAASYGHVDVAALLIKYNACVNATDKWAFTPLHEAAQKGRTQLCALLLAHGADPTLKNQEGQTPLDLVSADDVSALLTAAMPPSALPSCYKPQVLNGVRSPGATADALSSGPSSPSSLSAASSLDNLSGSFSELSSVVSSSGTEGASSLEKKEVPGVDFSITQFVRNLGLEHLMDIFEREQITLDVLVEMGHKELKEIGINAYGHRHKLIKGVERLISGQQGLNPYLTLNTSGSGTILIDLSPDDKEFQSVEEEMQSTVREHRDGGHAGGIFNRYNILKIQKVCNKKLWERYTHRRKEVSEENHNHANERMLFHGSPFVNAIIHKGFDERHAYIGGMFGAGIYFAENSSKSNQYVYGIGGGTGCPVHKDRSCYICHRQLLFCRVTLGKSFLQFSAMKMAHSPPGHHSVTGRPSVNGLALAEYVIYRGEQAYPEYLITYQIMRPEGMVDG
Excerpt: A DNA construct encoding for the TNKS2 binding sequence (3BP2^410-425) at the N-terminus as set out in SEQ ID NO: 1, a GGGGSS linker as set out in SEQ ID NO: 3, and the E3 binding sequence (ALAPYIP) as set out in SEQ ID NO: 2, at the C-terminus was cloned into pMOST25 vector (the full PROTAC as set out in SEQ ID NO: 4). pMOST25 is a lentiviral vector based on pCDH EF1a (System Biosciences) where the promoter was swapped for CMV and the MCS replaced by a new cassette with flanking NGS primer sites. Control constructs which (i) lacked the ALAPYIP E3 binding sequence (3BP2^410-425) as set out in SEQ ID NO: 5 or (ii) contained a double mutation which is known to disrupt HIF1α-VHL interaction (3BP2^410-425-ALAAAIP) as set out in SEQ ID NO: 6 were similarly cloned (Table 1). Neither control construct can bind to the E3 ligase and therefore there should be no change in the level of TNKS2 when cells are transduced with these. HEK293A cells were collected 20 hours after transfection, and levels of TNKS2 target protein were assessed by Western Blot (FIG. 2). Membranes were probed with primary antibodies against TNKS2 (Abcam ab155545), or actin (Abcam ab179467) as a loading control. […]
20 hours after transfection, cells were harvested and analyzed by Western Blotting. […]

TNKS2 (residues 20-800) = TNKS2 (residues 20-800) (Homo sapiens, UniProt Q9H2K2); conditions: read-out: affinity of binding to TNKS2; fluorescence polarization; Guettler et al., 2011; cited from earlier work

Sequence: MQNNPLTSGLEPSPPQCDYIRPSLTGKFAGNPWYYGKVTRHQAEMA [Hit (#1)]
GFP levels by FACS compared to no peptide control (GFP [1]; Peptide+MG132 (10 μM, 4 h)): restored GFP levels back to that of the ‘no peptide control’ cells
GFP levels by FACS compared to no peptide control (GFP [1]; Peptide+vehicle (DMSO only)): marked degradation of GFP
GFP levels by Western blot (GFP [2]; MG132 treated 4 hours): GFP levels were restored
GFP levels by Western blot compared to GFP control (GFP [2]; absence of MG132): almost complete depletion of GFP

levels of TNKS2 by Western blot (TNKS2): unaffected
Sequence: MGLPHLQRSPPDGQSFRSLEGGGGSSLDPETGEYL (3BP2(410-425) - LDPETGEYL peptide) [3BP2^410-425-LDPETGEYL]

Sequence: LPHLQRSPPDGQSFRS
Kd (TNKS2 (residues 20-800)): 500 nM

Sequence: MGLPHLQRSPPDGQSFRSLEGGGGSSAALAPYIP (3BP2(410-425)- ALAPYIP peptide) [3BP2^410-425-ALAPYIP]
levels of TNKS2 by Western blot (TNKS2): led to TNKS2 degradation; also recorded: markedly decreased levels of TNKS2
